Consider 3 molecules from patent publication US5739112A, “Inhibitors of factor Xa” (Corvas International, Inc., priority 1995, dated 1998).

Assay [1] deals with T1, Human factor Xa (Homo sapiens, UniProt P00742).
T1 construct: Human factor X contains a light-chain subunit containing 139 amino acid residues; purchased Enzyme Research Laboratories
Conditions: Hitomi et al., p. 166; read-out: inhibitor constant, human factor Xa; cited from earlier work.

For assay [2], the target named is T2, human thrombin (Homo sapiens, UniProt P00734). As to conditions: Hitomi et al., p. 166; read-out: inhibitor constant, human thrombin; cited from earlier work.
The target in assay [3] is T1, Human factor Xa. Put plainly: Factor Xa assay (chromogenic substrate S-2765). In kind it is biochemical. The procedure: (§1) To assay their activities, the compounds of the present invention are dissolved in buffer to give solutions containing concentrations ranging under assay concentrations from 0 to about 100 μM. The enzyme to be tested is then added to a solution containing a specified concentration of the test compound. Then after an incubation period, synthetic substrate for the enzyme being tested is added. The rate of substrate turnover is determined spectrophotometrically. The IC50 of the test compound is determined for each test compound in assays for factor Xa, factor XIa, thrombin and tPA. IC50 is that concentration of test compound giving 50% inhibition of the substrate turnover. Percent selectivity is used to indicate selectivity of a compound in inhibiting Factor Xa in comparison with either Factor XIa, thrombin or tPA. Percent selectivity of a particular compound for either Factor XIa, thrombin or tPA refers to a number obtained by dividing the product of one hundred and the IC50 of the compound for Factor Xa by the IC50 of the compound for either Factor XIa, thrombin or tPA.
(§2) The specificity of the peptide aldehydes through was determined by measurement of their IC50 against factor Xa, factor XIa, thrombin and tissue plasminogen activator (tPA). Peptide aldehyde which has been described in the art was run as a comparison. A specific concentration of enzyme and its substrate were challenged with varying concentrations: of inhibitor. IC50 is that concentration of inhibitor giving 50% inhibition of catalytic activity, under the assay conditions Specific assay procedures used are presented below.
Enzyme activity was determined using as substrate, S2765 (N-a-benzyloxycarbonyl-D-argininyl-L-glycyl-L-arginine-p-nitroanilide dihydrochloride) which was obtained from Kabi Diagnostica. The substrate was made up in deionized water prior to use.
Human factor Xa was obtained from Enzyme Research Laboratories. The enzyme was diluted into TBSA prior to use.
The assay was run by combining in appropriate wells 50 μL of TBSA, 50 μL of inhibitor in TBSA or TBSA (as negative control) and 50 μL of 2 nM human Factor Xa or TBSA (as background control). After incubating this mixture for 60 minutes at room temperature, 50 μL of 1 mM S-2765 was added to each well and the initial rate of the change of the optical density at 405 nm (OD405 nm) for each well was determined. OD405 nm was measured every 10 seconds for 5 minutes.

The target in assay [4] is T3, Human factor XIa (Homo sapiens, UniProt P03951).
T3 construct: purchased Enzyme Research Laboratories, Inc
T3 sequence (P03951 388-625 limits assumed): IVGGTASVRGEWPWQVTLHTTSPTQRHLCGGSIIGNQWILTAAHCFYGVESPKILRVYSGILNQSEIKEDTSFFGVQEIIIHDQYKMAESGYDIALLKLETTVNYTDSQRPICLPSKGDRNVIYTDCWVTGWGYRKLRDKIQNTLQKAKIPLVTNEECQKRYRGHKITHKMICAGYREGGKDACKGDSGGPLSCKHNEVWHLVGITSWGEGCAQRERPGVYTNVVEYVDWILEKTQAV
T3 sequence (P03951 19-387 partner limits assumed): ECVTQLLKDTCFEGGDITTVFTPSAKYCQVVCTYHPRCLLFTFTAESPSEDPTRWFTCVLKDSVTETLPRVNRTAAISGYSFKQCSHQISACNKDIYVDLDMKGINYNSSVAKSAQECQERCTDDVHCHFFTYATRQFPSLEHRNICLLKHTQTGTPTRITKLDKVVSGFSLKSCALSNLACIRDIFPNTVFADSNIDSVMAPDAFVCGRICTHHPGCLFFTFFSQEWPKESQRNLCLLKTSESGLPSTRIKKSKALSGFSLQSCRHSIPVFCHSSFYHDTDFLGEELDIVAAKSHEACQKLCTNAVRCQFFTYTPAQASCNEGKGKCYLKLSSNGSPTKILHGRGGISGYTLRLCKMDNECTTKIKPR
As to the kind of experiment: Factor XIa assay (chromogenic substrate S-2366). Type of assay: biochemical. The procedure:
as §1, §2
Enzyme activity was determined using as substrate, S2366 (L-pyroglutamyl-L-prolyl-L-arginine-p-nitroanilide hydrochloride) which was obtained from Kabi Diagnostica. The substrate was made up in deionized water prior to use.
Human factor XIa was obtained from Enzyme Research Laboratories, Inc. The enzyme was diluted into TBSA prior to use.
The assay was run by combining in appropriate wells 50 μL of TBSA, 50 μL of inhibitor in TBSA or TBSA (as negative control) and 50 μL of 2 nM human Factor Xia or TBSA (as background control). After incubating this mixture for 60 minutes at room temperature, 50 μL of 6 mM S-2366 was added to each well and the initial rate of the change of the optical density at 405 nm (OD405 nm) for each well was determined. OD405 nm was measured every 10 seconds for 5 minutes.

The target in a further assay is T4, Human α-thrombin (Homo sapiens, UniProt P00734).
T4 construct: purchased Enzyme Research Laboratories, Inc
Put plainly: Thrombin assay (chromogenic substrate S-2238). In kind it is biochemical. The procedure:
as §1, §2
Enzyme activity was determined using as substrate, S2238 (D-phenylalanyl-L-pipecolyl-L-arginine-p-nitroanilide dihydrochloride) which was obtained from Kabi Diagnostica. The substrate was made up in deionized water prior to use.
Human α-thrombin was obtained from Enzyme Research Laboratories, Inc. The enzyme was diluted into TBSA prior to use.
The assay was run by combining in appropriate wells 50 μL of TBSA, 50 μL of inhibitor in TBSA or TBSA (as negative control) and 50 μL of 4 nM human α-thrombin or TBSA (as background control). After incubating this mixture for 60 minutes at room temperature, 50 μL of 0.24 mM S-2238 was added to each well and the initial rate of the change of optical density at 405 nm (OD405 nm) for each well was determined. OD405 nm was measured every 10 seconds for 5 minutes.

Assay [5] has as its target T5, Human recombinant t-PA (Activase) (Homo sapiens, UniProt P00750).
T5 construct: purchased Genentech, Inc. Activase
Put plainly: tPA assay (substrate Pefachrome tPA). In kind it is biochemical. The procedure: as §1, §2
Enzyme activity was determined using as substrate, Pefachrome tPA (O-methylsulfonate-D-hexahydrotyrosine-L-glycyl-L-argini ne-p-nit roanilide acetate salt) which was obtained from Centerchem, Inc. The substrate was made up in deionized water prior to use.
Human recombinant t-PA (Activase®) was obtained. from Genentech, Inc. The enzyme was reconstituted with water, then diluted into TBSA prior to use.
The assay was run by combining in appropriate wells 50 μL of TBSA, 50 μL of inhibitor in TBSA or TBSA (as negative control) and 50 μL of 4 nM human recombinant tPA or TBSA (as background control). After incubating this mixture for 60 minutes at room temperature, 50 μL of 4 mM Pefachrome tPA was added to each well and the initial rate of the change of optical density at 405 nm (OD405 nm) for each well was determined. OD405 nm was measured every 10 seconds for 5 minutes.

Assay [6] deals with T1, Human factor Xa. Conditions: Turner et al., p. 4932; cited from earlier work.
In assay [7] the test system is Human factor XIa. As to conditions: Turner et al., p. 4932; cited from earlier work.
Assay [8] deals with T2, human thrombin. Conditions: Turner et al., p. 4932; cited from earlier work.
Setting [9] is: 60 min preincubation at room temperature, >25 means less than 50% inhibition at 25 μM.

Where only a bound is given, the exact number is not on record here.

T1 sequence (P00742 235-488 limits assumed): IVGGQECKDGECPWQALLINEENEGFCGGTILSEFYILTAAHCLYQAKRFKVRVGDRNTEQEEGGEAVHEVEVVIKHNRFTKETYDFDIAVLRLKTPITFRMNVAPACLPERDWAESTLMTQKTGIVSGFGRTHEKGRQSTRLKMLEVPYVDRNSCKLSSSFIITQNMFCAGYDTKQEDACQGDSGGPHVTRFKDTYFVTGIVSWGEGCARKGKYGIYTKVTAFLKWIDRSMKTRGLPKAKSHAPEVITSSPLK
T1 sequence (P00742 41-179 partner limits assumed): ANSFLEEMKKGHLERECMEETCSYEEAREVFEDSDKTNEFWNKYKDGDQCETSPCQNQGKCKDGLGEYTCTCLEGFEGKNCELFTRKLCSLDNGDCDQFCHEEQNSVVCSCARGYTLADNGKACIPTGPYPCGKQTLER
T5 sequence (P00750 36-562): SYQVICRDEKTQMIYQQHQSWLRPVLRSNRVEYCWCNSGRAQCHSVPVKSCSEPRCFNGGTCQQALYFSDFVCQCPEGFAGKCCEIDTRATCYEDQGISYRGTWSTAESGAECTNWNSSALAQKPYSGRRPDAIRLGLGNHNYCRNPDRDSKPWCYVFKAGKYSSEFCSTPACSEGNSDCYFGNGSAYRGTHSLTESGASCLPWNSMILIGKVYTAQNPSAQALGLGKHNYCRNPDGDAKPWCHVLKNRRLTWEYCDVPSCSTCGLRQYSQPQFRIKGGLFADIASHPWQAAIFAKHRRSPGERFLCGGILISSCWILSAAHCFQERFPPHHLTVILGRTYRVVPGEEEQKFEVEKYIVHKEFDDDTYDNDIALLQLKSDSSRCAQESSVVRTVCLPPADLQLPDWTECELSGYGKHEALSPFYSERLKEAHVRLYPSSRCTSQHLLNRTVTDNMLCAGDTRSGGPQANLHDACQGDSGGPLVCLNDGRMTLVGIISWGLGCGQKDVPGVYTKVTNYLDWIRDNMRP

Turning to `N=C(N)c1ccc2cc(OC(=O)c3ccc(N=C(N)N)cc3)ccc2c1` [FUT-75, 6-amidino-2-naphthyl-p-guanidinobenzoate dimethanesulfonate], the Ki at Human factor Xa [1] is 4.1 µM; at human thrombin [2], 1.3 µM.

With `CC(C)(C)OC(=O)NC(C(=O)N[C@@H](Cc1cccc2ccccc12)C(=O)N[C@H](C=O)CCCNC(=N)N)c1ccc(-c2ccccc2)cc1` (stereo partly drawn) [[7], N-t-butoxycarbonyl-D,L-(α-biphenyl)glycyl-L-3-(1-naphthyl)alanyl-L-argininal], the IC50 at Human factor Xa [3] (60 min preincubation at room temperature, TBSA pH 7.4) is 2.5 µM; against Human factor XIa [4] (setting [9]), over 25 µM; on Human α-thrombin (setting [9]), over 25 µM; in [5] (setting [9]) it was over 25 µM. At Human factor Xa [3] (taken as 100 by definition), the “Percent Selectivity Xa” value came out at 100. Further, the “Percent Selectivity XIa” value on Human factor XIa [4] (100 times IC50 for factor Xa divided by IC50 for factor XIa) was under 10. On Human α-thrombin (100 times IC50 for factor Xa divided by IC50 for thrombin), the “Percent Selectivity Thrombin” value was under 10. In addition, the “Percent Selectivity tPA” value in assay [5] (100 times IC50 for factor Xa divided by IC50 for tPA) is on record as under 10.

Turning to `CC(=Cc1ccccc1)C(=O)Oc1ccc(C(=N)N)cc1` [p-Amidinophenyl α-methylcinnamate], the “second-order rate constant of inactivation, human factor Xa” value at Human factor Xa [6] is 1650 M⁻¹ s⁻¹. Besides, the “second-order rate constant of inactivation, human factor XIa” value in the assay with Human factor XIa [7] is 2670 M⁻¹ s⁻¹. The “second-order rate constant of inactivation, human thrombin” value on human thrombin [8] was 2670 M⁻¹ s⁻¹.

As usually defined, the IC50 is the concentration needed to halve the response being measured.
